Laboratory results as given in patent US7659244B2, “Rapamycin peptides conjugates: synthesis and uses thereof” (Quest Pharmatech, Inc., priority 2004, dated 2010).
Where two headings read alike, the source gives them in different places.

Key:
[1] = read-out: Inhibition of H^3 Thymidine uptake (IC50 in nM), D341 cells, 96 hours incubation
[2] = read-out: Inhibition of H^3 Thymidine uptake (IC50 in nM), SK-N-SH cells, 96 hours incubation
[3] = read-out: Inhibition of H^3 Thymidine uptake (IC50 in nM), SKOV-3 cells, 96 hours incubation
[4] = read-out: Inhibition of H^3 Thymidine uptake (IC50 in nM), MCF-7 cells, 96 hours incubation
[5] = read-out: Inhibition of H^3 Thymidine uptake (IC50 in nM), A431 cells, 96 hours incubation
[6] = read-out: Inhibition of H^3 Thymidine uptake (IC50 in nM), SKMEL-2 cells, 96 hours incubation
[7] = read-out: Inhibition of H^3 Thymidine uptake (IC50 in nM), LS174T cells, 96 hours incubation
[8] = read-out: Inhibition of H^3 Thymidine uptake (IC50 in nM), Lncap cells, 96 hours incubation
[9] = read-out: Inhibition of H^3 Thymidine uptake (IC50 in nM), OVCAR-3 cells, 96 hours incubation

Molecule | IC50 (D341; 96 h) [nM] | IC50 (SK-N-SH; 96 h) [nM] | IC50 (SKOV-3; 96 h) [nM] | IC50 (MCF-7; 96 h) [nM] | IC50 (A431; 96 h) [nM] | IC50 (SKMEL-2; 96 h) [nM] | IC50 (LS174T; 96 h) [nM] | IC50 (Lncap; 96 h) [nM] | IC50 (OVCAR-3; 96 h) [nM] | IC50 (D341; [1]) [nM] | IC50 (SK-N-SH; [2]) [nM] | IC50 (SKOV-3; [3]) [nM] | IC50 (MCF-7; [4]) [nM] | IC50 (A431; [5]) [nM] | IC50 (SKMEL-2; [6]) [nM] | IC50 (LS174T; [7]) [nM] | IC50 (Lncap; [8]) [nM] | IC50 (OVCAR-3; [9]) [nM]
CO[C@H]1C[C@@H]2CC[C@@H](C)[C@@](O)(O2)C(=O)C(=O)N2CCCC[C@H]2C(=O)O[C@H]([C@H](C)C[C@@H]2CC[C@@H](OC(=O)NC(CO)(CO)CO)[C@H](OC)C2)CC(=O)[C@H](C)/C=C(\C)[C@@H](O)[C@@H](OC)C(=O)[C@H](C)C[C@H](C)/C=C/C=C/C=C/1C [Compound 7u, Rapamycin-42-O-ester-Tris(hydroxymethyl)amino methane] | – | – | – | – | – | – | – | – | – | 20.8 | 6.4 | 8.08 | 1.54 | 282 | 6.15 | 1590 | 14 | 56.6
CC[C@H](C)[C@H](NC(=O)O[C@@H]1CC[C@@H](C[C@@H](C)[C@@H]2CC(=O)[C@H](C)/C=C(\C)[C@@H](O)[C@@H](OC)C(=O)[C@H](C)C[C@H](C)/C=C/C=C/C=C(\C)[C@@H](OC)C[C@@H]3CC[C@@H](C)[C@@](O)(O3)C(=O)C(=O)N3CCCC[C@H]3C(=O)O2)C[C@H]1OC)C(=O)N[C@H](CO)Cc1ccccc1 [Compound 7b, Rapamycin-42-O-ester-(NH-L-Ile-S-Phe-CH2OH)] | 182 | 144 | 136 | 53.3 | 1840 | 326 | 1480 | 309 | 424 | – | – | – | – | – | – | – | – | –
Rapamycin-42-O-ester-(R) (+)-2-amino-3-phenyl-1-propanol [Compound 7k] | – | – | – | – | – | – | – | – | – | 259 | 71.3 | 66 | 15.9 | 550 | 109 | 1380 | 146 | 296
CC[C@H](C)[C@H](NC(=O)[C@H](CC(C)C)NC(=O)[C@H](C)NC(=O)[C@H](Cc1cn(C(c2ccccc2)(c2ccccc2)c2ccccc2)cn1)NC(=O)O[C@@H]1CC[C@@H](C[C@@H](C)[C@@H]2CC(=O)[C@H](C)/C=C(\C)[C@@H](O)[C@@H](OC)C(=O)[C@H](C)C[C@H](C)/C=C/C=C/C=C(\C)[C@@H](OC)C[C@@H]3CC[C@@H](C)[C@@](O)(O3)C(=O)C(=O)N3CCCC[C@H]3C(=O)O2)C[C@H]1OC)C(=O)N[C@@H](CO)Cc1ccccc1 [Compound 7h] | 405 | 223 | 155 | 85.5 | 2370 | 416 | 777 | 374 | 375 | – | – | – | – | – | – | – | – | –

The next lines start with results.

IC50 (D341; 96 h) [nM] | IC50 (SK-N-SH; 96 h) [nM] | IC50 (SKOV-3; 96 h) [nM] | IC50 (MCF-7; 96 h) [nM] | IC50 (A431; 96 h) [nM] | IC50 (SKMEL-2; 96 h) [nM] | IC50 (LS174T; 96 h) [nM] | IC50 (Lncap; 96 h) [nM] | IC50 (OVCAR-3; 96 h) [nM] | Molecule | IC50 (D341; [1]) [nM] | IC50 (SK-N-SH; [2]) [nM] | IC50 (SKOV-3; [3]) [nM] | IC50 (MCF-7; [4]) [nM] | IC50 (A431; [5]) [nM] | IC50 (SKMEL-2; [6]) [nM] | IC50 (LS174T; [7]) [nM] | IC50 (Lncap; [8]) [nM] | IC50 (OVCAR-3; [9]) [nM]
114 | 111 | 72.1 | 32.3 | 286 | 87.4 | 1700 | 212 | 260 | CC[C@H](C)[C@H](NC(=O)[C@H](CC(C)C)NC(=O)O[C@@H]1CC[C@@H](C[C@@H](C)[C@@H]2CC(=O)[C@H](C)/C=C(\C)[C@@H](O)[C@@H](OC)C(=O)[C@H](C)C[C@H](C)/C=C/C=C/C=C(\C)[C@@H](OC)C[C@@H]3CC[C@@H](C)[C@@](O)(O3)C(=O)C(=O)N3CCCC[C@H]3C(=O)O2)C[C@H]1OC)C(=O)N[C@@H](CO)Cc1ccccc1 [Compound 7c, Rapamycin-42-O-ester-(NH-L-Leu-L-Ile-D-Phe-CH2OH)] | – | – | – | – | – | – | – | – | –
82.8 | 90 | 76.6 | 66.9 | 490 | 155 | 146 | 191 | 503 | CC[C@H](C)[C@H](NC(=O)[C@H](CC(C)C)NC(=O)[C@H](C)NC(=O)O[C@@H]1CC[C@@H](C[C@@H](C)[C@@H]2CC(=O)[C@H](C)/C=C(\C)[C@@H](O)[C@@H](OC)C(=O)[C@H](C)C[C@H](C)/C=C/C=C/C=C(\C)[C@@H](OC)C[C@@H]3CC[C@@H](C)[C@@](O)(O3)C(=O)C(=O)N3CCCC[C@H]3C(=O)O2)C[C@H]1OC)C(=O)N[C@@H](CO)Cc1ccccc1 [Compound 7e, Rapamycin-42-O-ester-(NH-L-Ala-L-Leu-L-Ile-D-Phe-CH2OH)] | – | – | – | – | – | – | – | – | –
138 | 86.9 | 80 | 29.6 | 608 | 78.1 | 626 | 154 | 416 | CC[C@H](C)[C@H](NC(=O)O[C@@H]1CC[C@@H](C[C@@H](C)[C@@H]2CC(=O)[C@H](C)/C=C(\C)[C@@H](O)[C@@H](OC)C(=O)[C@H](C)C[C@H](C)/C=C/C=C/C=C(\C)[C@@H](OC)C[C@@H]3CC[C@@H](C)[C@@](O)(O3)C(=O)C(=O)N3CCCC[C@H]3C(=O)O2)C[C@H]1OC)C(=O)N[C@@H](CO)Cc1ccccc1 [Compound 7a, Rapamycin-42-O-ester-(NH-L-Ile-D-Phe-CH2OH)] | – | – | – | – | – | – | – | – | –
